Test results from ChEMBL document CHEMBL5226361, “Marine Sponge-Derived Alkaloid Induces Mitochondrial Dysfunction and Inhibits the PI3K/AKT/mTOR Signaling Pathway against Burkitt's Lymphoma” (J Nat Prod, 2023).
pIC50: −log10 of the molar value. Activity calls are given as the source filed them. The rule behind the calls is not given here.

Columns and labels:
[1] = Inhibition of PI3K/AKT/mTOR signalling pathway in human Raji cells assessed as inhibition of mTOR phosphorylation incubated for 24 hrs by Western blot analysis; assay type: cell-based; conditions: dose 1.25-5 µM
Raji [2] = experiment: Induction of cell cycle arrest at G0/G1 phase in human Raji cells assessed as upregulation of p21 protein expression at 1.25 to 5 uM incubated for 24 to 48 hrs by Western blot analysis; assay type: functional, cell-based; conditions: dose 1.25-5 µM, time 24-48 hrs
Raji [3] = experiment: Induction of apoptosis in human Raji cells assessed as effect on caspase-8 protein expression at 1.25 to 5 uM incubated for 24 hrs by Western blot analysis; assay type: functional, cell-based; conditions: dose 1.25-5 µM
Raji [4] = experiment: Induction of apoptosis in human Raji cells assessed as effect on Bax protein expression at 1.25 to 5 uM incubated for 24 hrs by Western blot analysis; assay type: functional, cell-based; conditions: dose 1.25-5 µM
Raji [5] = experiment: Induction of apoptosis in human Raji cells assessed as effect on cleaved caspase-8 protein expression at 1.25 to 5 uM incubated for 24 hrs by Western blot analysis; assay type: functional, cell-based; conditions: dose 1.25-5 µM
Raji [6] = experiment: Induction of mitochondrial oxidative damage in human Raji cells assessed as increase in intracellular mitochondrial superoxide generation at 5 uM incubated for 1 to 6 hrs by MitoSOX red dye based flow cytometric analysis; assay type: functional, cell-based; conditions: time 1-6 hrs
Raji [7] = experiment: Induction of cell cycle arrest in human Raji cells assessed as G2 phase cells at 5 uM incubated for 48 hrs by PI staining based flow cytometry analysis (reference value: 10.06%); assay type: functional
[8] = Inhibition of PI3K/AKT/mTOR signalling pathway in human Daudi cells assessed as inhibition of PI3K phosphorylation incubated for 24 hrs by Western blot analysis; assay type: cell-based; conditions: dose 0.75-3 µM
Raji [9] = experiment: Induction of mitochondrial respiratory chain damage in human Raji cells assessed as decrease in CYC1 protein expression at 2.5 to 5 uM incubated for 48 hrs by Western blot analysis; assay type: functional, cell-based; conditions: dose 2.5-5 µM
Raji [10] = experiment: Induction of apoptosis in human Raji cells assessed as downregulation of BCL-XL expression at 1.25 to 5 uM incubated for 24 hrs by Western blot analysis; assay type: functional, cell-based; conditions: dose 1.25-5 µM
Raji [11] = experiment: Induction of cell cycle arrest in human Raji cells assessed as S phase cells at 5 uM incubated for 48 hrs by PI staining based flow cytometry analysis (reference value: 69.78%); assay type: functional
Daudi [12] = experiment: Induction of apoptosis in human Daudi cells assessed as necrotic cells at 3 uM incubated for 24 hrs in the presence of YS49 by Annexin V-FITC/PI staining based flow cytometric analysis (reference value: 1.0%); assay type: functional
Raji [13] = experiment: Induction of apoptosis in human Raji cells assessed as necrotic cells at 5 uM incubated for 24 hrs by Annexin V-FITC/PI staining based flow cytometric analysis (reference value: 1.5%); assay type: functional
Daudi [14] = experiment: Induction of mitochondrial respiratory chain damage in human Daudi cells assessed as decrease in CYC1 protein expression at 1.5 to 3 uM incubated for 48 hrs by Western blot analysis; assay type: functional, cell-based; conditions: dose 1.5-3 µM
[15] = Inhibition of PI3K/AKT/mTOR signalling pathway in human Daudi cells assessed as inhibition of AKT phosphorylation at […] residue incubated for 24 hrs by Western blot analysis; assay type: cell-based; conditions: dose 0.75-3 µM
Raji [16] = experiment: Induction of apoptosis in human Raji cells assessed as upregulation of cytochrome C expression at 1.25 to 5 uM incubated for 24 hrs by Western blot analysis; assay type: functional, cell-based; conditions: dose 1.25-5 µM
Raji [17] = experiment: Induction of mitochondrial respiratory chain damage in human Raji cells assessed as decrease in SDHA protein expression at 2.5 to 5 uM incubated for 48 hrs by Western blot analysis; assay type: functional, cell-based; conditions: dose 2.5-5 µM
Raji [18] = experiment: Antiproliferative activity against human Raji cells assessed as inhibition of cell growth incubated for 48 hrs by CCK-8 assay; assay type: functional, cell-based
Daudi [19] = experiment: Induction of cell cycle arrest at G0/G1 phase in human Daudi cells assessed as upregulation of p21 protein expression at 0.75 to 3 uM incubated for 24 to 48 hrs by Western blot analysis; assay type: functional, cell-based; conditions: dose 0.75-3 µM, time 24-48 hrs
Daudi [20] = experiment: Induction of apoptosis in human Daudi cells assessed as effect on Bax protein expression at 0.75 to 3 uM incubated for 24 hrs by Western blot analysis; assay type: functional, cell-based; conditions: dose 0.75-3 µM
Raji [21] = experiment: Effect on total AKT protein level in human Raji cells at 1.25 to 5 uM incubated for 24 hrs by Western blot analysis; assay type: functional, cell-based; conditions: dose 1.25-5 µM
[22] = Inhibition of PI3K/AKT/mTOR signalling pathway in human Raji cells assessed as inhibition of PI3K phosphorylation incubated for 24 hrs by Western blot analysis; assay type: cell-based; conditions: dose 1.25-5 µM
Raji [23] = experiment: Induction of mitochondrial dysfunction in human Raji cells assessed as decrease in ATP-5H protein expression at 2.5 to 5 uM incubated for 48 hrs by Western blot analysis; assay type: functional, cell-based; conditions: dose 2.5-5 µM
Raji [24] = experiment: Induction of cell cycle arrest at G0/G1 phase in human Raji cells assessed as downregulation of CyclinE1 protein expression at 1.25 to 5 uM incubated for 24 to 48 hrs by Western blot analysis; assay type: functional, cell-based; conditions: dose 1.25-5 µM, time 24-48 hrs
[25] = Inhibition of PI3K/AKT/mTOR signalling pathway in human Raji cells assessed as increase in ratio of PI3K phosphorylation to total PI3K protein level at 5 uM incubated for 12 hrs in the presence of YS49 by Western blot analysis; assay type: cell-based
Daudi [26] = experiment: Induction of apoptosis in human Daudi cells assessed as downregulation of Mcl-1 expression at 0.75 to 3 uM incubated for 24 hrs by Western blot analysis; assay type: functional, cell-based; conditions: dose 0.75-3 µM
Raji [27] = experiment: Induction of mitochondrial dysfunction in human Raji cells assessed as decrease in ATP content incubated for 24 hrs by CellTiter-Lumi […] assay; assay type: functional, cell-based; conditions: dose 1.25-5 µM
Daudi [28] = experiment: Induction of apoptosis in human Daudi cells assessed as upregulation of cytochrome C expression at 0.75 to 3 uM incubated for 24 hrs by Western blot analysis; assay type: functional, cell-based; conditions: dose 0.75-3 µM
Daudi [29] = experiment: Induction of apoptosis in human Daudi cells assessed as effect on caspase-8 protein expression at 0.75 to 3 uM incubated for 24 hrs by Western blot analysis; assay type: functional, cell-based; conditions: dose 0.75-3 µM
[30] = Inhibition of PI3K/AKT/mTOR signalling pathway in human Daudi cells assessed as increase in ratio of PI3K phosphorylation to total PI3K protein level at 3 uM incubated for 12 hrs in the presence of YS49 by Western blot analysis; assay type: cell-based
Daudi [31] = experiment: Induction of apoptosis in human Daudi cells assessed as nuclear condensation incubated for 24 hrs by Hoechst 33258/PI staining based fluorescence microscopic analysis; assay type: functional, cell-based; conditions: dose 0.75-3 µM
Daudi [32] = experiment: Induction of apoptosis in human Daudi cells assessed as late apoptotic cells at 3 uM incubated for 24 hrs by Annexin V-FITC/PI staining based flow cytometric analysis (reference value: 0.0%); assay type: functional
Daudi [33] = experiment: Induction of cell cycle arrest at G0/G1 phase in human Daudi cells assessed as downregulation of Cyclin E1 protein expression at 0.75 to 3 uM incubated for 24 to 48 hrs by Western blot analysis; assay type: functional, cell-based; conditions: dose 0.75-3 µM, time 24-48 hrs
Daudi [34] = experiment: Induction of apoptosis in human Daudi cells assessed as total apoptotic cells at 3 uM incubated for 24 hrs by Annexin-V/PI staining based flow cytometric analysis relative to control; assay type: functional
Daudi [35] = experiment: Induction of mitochondrial respiratory chain damage in human Daudi cells assessed as decrease in SDHA protein expression at 1.5 to 3 uM incubated for 48 hrs by Western blot analysis; assay type: functional, cell-based; conditions: dose 1.5-3 µM
Raji [36] = experiment: Effect on total PI3K protein level in human Raji cells at 1.25 to 5 uM incubated for 24 hrs by Western blot analysis; assay type: functional, cell-based; conditions: dose 1.25-5 µM

For COc1c(OC)c2c3c(nccc3c1-c1cc(C)cc(C)c1)C(c1cc(C)cc(C)c1)=CN2, the inhibition [1] was “Dose-Dependent Effect”, the Activity (Raji [2]) was “Active” and the Activity (Raji [3]) was “inactive”. The Activity (Raji [4]) was “inactive”, the Activity (Raji [5]) was “inactive” and the Activity (Raji [6]) was “Active”. The Activity (Raji [7]) was 9.61%, the inhibition [8] was “Dose-Dependent Effect” and the Activity (Raji [9]) was “Active”. The Activity (Raji [10]) was “Active”, the Activity (Raji [11]) was 49.74% and the Activity (Daudi [12]) was 1.7%. For the same compound, the Activity (Raji [13]) was 17%, the Activity (Daudi [14]) was “Active” and the inhibition [15] was “Dose-Dependent Effect”. The Activity (Raji [16]) was “Active”, the Activity (Raji [17]) was “Active” and the pIC50 (Raji [18]) was 5.68. For the same compound, the Activity (Daudi [19]) was “Active”, the Activity (Daudi [20]) was “inactive” and the Activity (Raji [21]) was “inactive”. The inhibition [22] was “Dose-Dependent Effect”, the Activity (Raji [23]) was “Active” and the Activity (Raji [24]) was “Active”. For the same compound, the inhibition [25] was “inactive”, the Activity (Daudi [26]) was “Active” and the Activity (Raji [27]) was “Dose-Dependent Effect”. The Activity (Daudi [28]) was “Active”, the Activity (Daudi [29]) was “inactive” and the inhibition [30] was “inactive”. The Activity (Daudi [31]) was “Dose-Dependent Effect”, the Activity (Daudi [32]) was 5.4% and the Activity (Daudi [33]) was “Active”. For the same compound, the Activity (Daudi [34]) was 21.6%, the Activity (Daudi [35]) was “Active” and the Activity (Raji [36]) was “inactive”.
